Experiments:
[1] = Adverse reactions seen in the treated patients; conditions: Example 2 patient; medication discontinued
[2] = human, in vivo
MAP = conditions: cited from earlier work
cathelicidin = conditions: cited from earlier work
M. tuberculosis = conditions: cited from earlier work

With `NCC1(CC(=O)O)CCCCC1` [Gabapentin] the “Tolerability at the lowest recommended dose” value [1] was “very dizzy”.

With `Cn1cnc([N+](=O)[O-])c1Sc1ncnc2nc[nH]c12` [azathioprine] the “Liver enzymes leading to discontinuation” value [2] was “elevated ALT and AST”.

In the case of Vitamin A, the “Growth of MAP in vitro” value (MAP) is given as “inhibit the growth of MAP”.

For Vitamin D, the “Growth of MAP in vitro” value (MAP) is listed as “inhibit the growth of MAP”, the “Intracellular production of cathelicidin” value (cathelicidin) is listed as “induces” and the “Proliferation of M. tuberculosis in macrophages” value (M. tuberculosis) is listed as “reduce the proliferation”.

Source: patent publication US10898502B2, “Treatment of diseases using a combination of ultraviolet blood irradiation and antibiotics” (priority 2014, dated 2021)
